Laboratory results published in patent US9597407B2, “Targeted antimicrobial moieties” (C3 Jian, Inc., priority 2009, dated 2017).
Entries after “also recorded” stand apart in the source; their conditions may differ. Ends that are not written are not given here.

Columns and labels:
bacteria = assay: Binding of targeting peptides to microorganisms (Table 3); settings: preferably 1x PBS; for Target(s) (microorganism bound by the targeting peptide) / Target(s) (microorganisms bound by the targeting peptide): peptide binding in aqueous buffers that varied depending on peptide solubility
microorganisms [1] = assay: Peptide activities: binding, antimicrobial, growth or phenotype altering (Table 8)
Source text: In certain embodiments, peptides described herein can have multiple activities. Thus for example, a peptide can have both binding/targeting activity and antimicrobial activity. Such peptides can be used, e.g., in a chimeric construct, for any or all of these properties. Thus, for example, a peptide designated “B” in Table 8 can be used as a targeting peptide. If it is also designated G or M it can also be used for antimicrobial activity.

microorganisms [2] = assay: Morphology, biofilm and growth disruption by peptides (Table 5); assay type: cell-based; parameters: key: A: Peptide aggregates; B: Less hyphal formation; Clumps; Diffuse clumps and small polyps; F: Diffuse growth; H: Thin; I: Growth inhibition; Microcolony formation; Rippled; Small polyps; Thick; W: Halo formation on top, microlonies on bottom
Source text: In certain embodiments peptides that induce alterations in phenotype or other biological activities can also be used as antimicrobial effector moieties.

[3] = microorganism bound by the targeting peptide, binding in aqueous buffers chosen by peptide solubility
[4] = microorganism the targeting peptide binds, binding in aqueous buffers that varied with peptide solubility

## PF-756 (chain 1 DALLRLA; chain 2 DALLRLA; Peptide with targeting and/or antimicrobial activity)
bacteria
  Target(s) (microorganism bound by the targeting peptide): S. epidermidis and M. luteus and C. albicans and MRSA and C. jeikeium
Microorganisms [1]
  Activities: G B
Microorganisms [2]; S. pneumoniae
  Organism, effect (morphology, biofilm and growth disruption): S. pneumoniae (A)

## PF-360 (MEQKVKVIFVPRSKPDNQLKTFVSAVLFKA; Peptide with targeting and/or antimicrobial activity)
bacteria; [3]
  Target(s): S. epidermidis; also recorded: B. subtilis; also recorded: E. coli; also recorded: P. aeruginosa; also recorded: C. albicans; also recorded: E. faecalis; also recorded: C. jeikeium; also recorded: C. jejuni
Microorganisms [1]
  Activities: G B
Microorganisms [2]; E. coli
  Organism, effect: E. coli (C)
Microorganisms [2]; MRSA
  Organism, effect: MRSA (H)
Microorganisms [2]; S. epidermidis
  Organism, effect: S. epidermidis (S)

## PF-513 (SNGVGLGVGIGSGIRF-NH2)
bacteria
  Target(s) (microorganisms bound by the targeting peptide): C. albicans
Microorganisms [1]
  Activities: G B
Microorganisms [2]; S. pneumoniae
  Organism, effect (morphology, biofilm and growth disruption): S. pneumoniae (M)

## PF-563 (RPELDNELDVVQNSASLDKLQASYN; Peptide with targeting and/or antimicrobial activity)
bacteria
  Target(s) (microorganisms bound by the targeting peptide): S. epidermidis; also recorded: M. luteus; also recorded: C. jeikeium
Microorganisms [1]
  Activities: G B
Microorganisms [2]; B. subtilis
  Organism, effect (morphology, biofilm and growth disruption): B. subtilis (D)
Microorganisms [2]; C. jejuni
  Organism, effect (morphology, biofilm and growth disruption): C. jejuni (H)
Microorganisms [2]; S. pneumoniae
  Organism, effect (morphology, biofilm and growth disruption): S. pneumoniae (H)

## PF-370 (VIFLHKESGNLKEIFY; Peptide with targeting and/or antimicrobial activity)
bacteria; [3]
  Target(s): S. epidermidis; also recorded: E. coli; also recorded: P. aeruginosa; also recorded: E. faecalis; also recorded: C. jejuni
Microorganisms [1]
  Activities: G B
Microorganisms [2]; E. coli
  Organism, effect: E. coli (R)
Microorganisms [2]; MRSA
  Organism, effect: MRSA (C)
Microorganisms [2]; S. epidermidis
  Organism, effect: S. epidermidis (C)

## PF-073 (CPSVTMDACALLQKFDFCNNISHFRHFFAIKQPIER; Peptide with targeting and/or antimicrobial activity)
bacteria; [3]
  Target(s): S. epidermidis and M. luteus and P. aeruginosa and C. albicans and MRSA and S. pneumoniae and E. faecalis
Microorganisms [1]
  Activities: G B
Microorganisms [2]; C. jeikeium
  Organism, effect: C. jeikeium (D)
Microorganisms [2]; C. jejuni
  Organism, effect: C. jejuni (D)
Microorganisms [2]; M. luteus
  Organism, effect: M. luteus (R)
Microorganisms [2]; MRSA
  Organism, effect: MRSA (M)
Microorganisms [2]; S. epidermidis
  Organism, effect: S. epidermidis (R)
Microorganisms [2]; S. pneumoniae
  Organism, effect: S. pneumoniae (D)

## PF-031 (MPHHSTTSSRIVVPAHQSNMASTPNLSITP; Peptide with targeting and/or antimicrobial activity)
bacteria; [4]
  Target(s): M. luteus; also recorded: C. albicans
Microorganisms [1]
  Activities: G B
Microorganisms [2]; MRSA
  Organism, effect: MRSA (M)

## PF-C065 (DEERYSDSYFLKEKVFYLILALFLILFHQKYLYFLEIITI; Peptide with targeting and/or antimicrobial activity)
bacteria
  Target(s) (microorganism bound by the targeting peptide): A. naeslundii; also recorded: F. nucleatum; also recorded: P. gingivalis; also recorded: S. mutans
Microorganisms [1]
  Activities: G B
Microorganisms [2]; F. nucleatum
  Organism, effect (morphology, biofilm and growth disruption): F. nucleatum (T)

## PF-762 (chain 1 PAPAPSAPAPAPEQPEQPA; chain 2 PAPAPSAPAPAPEQPEQPA; Peptide with targeting and/or antimicrobial activity)
bacteria
  Target(s) (microorganism bound by the targeting peptide): M. luteus; also recorded: C. albicans
Microorganisms [1]
  Activities: G B
Microorganisms [2]; S. pneumoniae
  Organism, effect (morphology, biofilm and growth disruption): S. pneumoniae (H)

## PF-627 (chain 1 INDLLSYFTLHEK; chain 2 INDLLSYFTLHEK; Peptide with targeting and/or antimicrobial activity)
bacteria
  Target(s) (microorganism bound by the targeting peptide): S. epidermidis and P. aeruginosa and MRSA and S. pneumoniae and E. faecalis and C. jeikeium
Microorganisms [1]
  Activities: G B
Microorganisms [2]; C. albicans
  Organism, effect (morphology, biofilm and growth disruption): C. albicans (B)
Microorganisms [2]; E. faecalis
  Organism, effect (morphology, biofilm and growth disruption): E. faecalis (H)
Microorganisms [2]; MRSA
  Organism, effect (morphology, biofilm and growth disruption): MRSA (R)
Microorganisms [2]; S. epidermidis
  Organism, effect (morphology, biofilm and growth disruption): S. epidermidis (H)
Microorganisms [2]; S. pneumoniae
  Organism, effect (morphology, biofilm and growth disruption): S. pneumoniae (I)

## PF-048 (LYFAFKKYQERVNQAPNIEY; Peptide with targeting and/or antimicrobial activity)
bacteria; [4]
  Target(s): S. epidermidis and M. luteus and E. coli and MRSA and C. jeikeium and C. jejuni
Microorganisms [1]
  Activities: G B
Microorganisms [2]; C. jeikeium
  Organism, effect: C. jeikeium (S)
Microorganisms [2]; MRSA
  Organism, effect: MRSA (W)
Microorganisms [2]; S. epidermidis
  Organism, effect: S. epidermidis (D)

## PF-289 (MGRHLWNPSYFVATVSENTEEQIRKYRKNK; Peptide with targeting and/or antimicrobial activity)
bacteria; [3]
  Target(s): C. difficile
Microorganisms [1]
  Activities: G B
Microorganisms [2]; B. subtilis
  Organism, effect: B. subtilis (C)

## PF-567 (QQRVKAVDASLSQVSTQVSGAVASA; Peptide with targeting and/or antimicrobial activity)
bacteria
  Target(s) (microorganisms bound by the targeting peptide): S. epidermidis and P. aeruginosa and C. albicans and MRSA and S. pneumoniae and C. jeikeium
Microorganisms [1]
  Activities: G B
Microorganisms [2]; C. jeikeium
  Organism, effect (morphology, biofilm and growth disruption): C. jeikeium (C)
Microorganisms [2]; C. jejuni
  Organism, effect (morphology, biofilm and growth disruption): C. jejuni (D)
Microorganisms [2]; M. luteus
  Organism, effect (morphology, biofilm and growth disruption): M. luteus (C)
Microorganisms [2]; MRSA
  Organism, effect (morphology, biofilm and growth disruption): MRSA (D)
Microorganisms [2]; S. pneumoniae
  Organism, effect (morphology, biofilm and growth disruption): S. pneumoniae (D)

## PF-393 (DLVQSILSEFKKSG; Peptide with targeting and/or antimicrobial activity)
bacteria
  Target(s) (microorganisms bound by the targeting peptide): S. epidermidis and E. coli and C. albicans and MRSA and S. pneumoniae and C. jejuni
Microorganisms [1]
  Activities: G B
Microorganisms [2]; C. jejuni
  Organism, effect: C. jejuni (R)
Microorganisms [2]; E. faecalis
  Organism, effect: E. faecalis (A)
Microorganisms [2]; MRSA
  Organism, effect: MRSA (C)
Microorganisms [2]; S. epidermidis
  Organism, effect: S. epidermidis (R)
Microorganisms [2]; S. pneumoniae
  Organism, effect: S. pneumoniae (R)

## PF-369 (MSEAVNLLRGARYSQRYAKNQVPYEVIIEK; Peptide with targeting and/or antimicrobial activity)
bacteria; [3]
  Target(s): B. subtilis; also recorded: B. fragilis; also recorded: E. coli; also recorded: P. aeruginosa; also recorded: C. albicans; also recorded: S. pneumoniae; also recorded: C. jeikeium; also recorded: C. jejuni
Microorganisms [1]
  Activities: G B
Microorganisms [2]; E. coli
  Organism, effect: E. coli (R)
Microorganisms [2]; E. faecalis
  Organism, effect: E. faecalis (C)
Microorganisms [2]; MRSA
  Organism, effect: MRSA (H)
Microorganisms [2]; S. epidermidis
  Organism, effect: S. epidermidis (S)

## PF-066 (IKGTVKAVDETTVVITVNGHGTELTFEKPAIKQVDPS; Peptide with targeting and/or antimicrobial activity)
bacteria; [4]
  Target(s): M. luteus; also recorded: E. coli; also recorded: C. jeikeium
Microorganisms [1]
  Activities: G B
Microorganisms [2]; MRSA
  Organism, effect: MRSA (S)

## PF-452 (MNNWIKVAQISVTVINEVIDIMKEKQNGGK; Peptide with targeting and/or antimicrobial activity)
bacteria
  Target(s) (microorganisms bound by the targeting peptide): M. luteus; also recorded: P. aeruginosa; also recorded: C. albicans; also recorded: S. pneumoniae; also recorded: E. faecalis; also recorded: C. jeikeium; also recorded: M. smegmatis
Microorganisms [1]
  Activities: G B
Microorganisms [2]; E. coli
  Organism, effect (morphology, biofilm and growth disruption): E. coli (C)
Microorganisms [2]; E. faecalis
  Organism, effect (morphology, biofilm and growth disruption): E. faecalis (C)
Microorganisms [2]; MRSA
  Organism, effect (morphology, biofilm and growth disruption): MRSA (C)
Microorganisms [2]; S. epidermidis
  Organism, effect (morphology, biofilm and growth disruption): S. epidermidis (C)
Microorganisms [2]; S. pneumoniae
  Organism, effect (morphology, biofilm and growth disruption): S. pneumoniae (R)

## PF-373 (HFYLLFER; Peptide with targeting and/or antimicrobial activity)
bacteria; [3]
  Target(s): S. epidermidis and E. coli and P. aeruginosa and C. albicans and MRSA and E. faecalis and C. jejuni
Microorganisms [1]
  Activities: G B
Microorganisms [2]; MRSA
  Organism, effect: MRSA (M)
Microorganisms [2]; S. epidermidis
  Organism, effect: S. epidermidis (M)

## PF-576 (AYSGELPEPLVRKMSKEQVRSVMGK; Peptide with targeting and/or antimicrobial activity)
bacteria
  Target(s) (microorganisms bound by the targeting peptide): M. luteus; also recorded: P. mirabilis; also recorded: E. coli; also recorded: P. aeruginosa; also recorded: C. albicans; also recorded: S. pneumoniae
Microorganisms [1]
  Activities: G B
Microorganisms [2]; C. jejuni
  Organism, effect (morphology, biofilm and growth disruption): C. jejuni (C)
Microorganisms [2]; E. coli
  Organism, effect (morphology, biofilm and growth disruption): E. coli (A)
Microorganisms [2]; MRSA
  Organism, effect (morphology, biofilm and growth disruption): MRSA (R)
Microorganisms [2]; S. epidermidis
  Organism, effect (morphology, biofilm and growth disruption): S. epidermidis (A)
Microorganisms [2]; S. pneumoniae
  Organism, effect (morphology, biofilm and growth disruption): S. pneumoniae (C)

## PF-015 (SIDKRNLYNLKYYE; Peptide with targeting and/or antimicrobial activity)
bacteria; [4]
  Target(s): E. faecalis; also recorded: C. jeikeium
Microorganisms [1]
  Activities: G B
Microorganisms [2]; MRSA
  Organism, effect: MRSA (W)

## PF-C058 (FETGFGDGYYMSLWGLNEKDEVCKVVIPFINPELID; Peptide with targeting and/or antimicrobial activity)
bacteria
  Target(s) (microorganism bound by the targeting peptide): A. naeslundii; also recorded: F. nucleatum; also recorded: P. gingivalis; also recorded: S. mutans
Microorganisms [1]
  Activities: G B
Microorganisms [2]; S. mutans
  Organism, effect (morphology, biofilm and growth disruption): S. mutans (F)

## PF-422 (MSRKKYENDEKSQKKLKIGRKSDVFYGIID; Peptide with targeting and/or antimicrobial activity)
bacteria
  Target(s) (microorganisms bound by the targeting peptide): C. albicans and MRSA and C. jeikeium
Microorganisms [1]
  Activities: G B
Microorganisms [2]; C. jejuni
  Organism, effect (morphology, biofilm and growth disruption): C. jejuni (R)
Microorganisms [2]; E. faecalis
  Organism, effect (morphology, biofilm and growth disruption): E. faecalis (R)
Microorganisms [2]; MRSA
  Organism, effect (morphology, biofilm and growth disruption): MRSA (C)
Microorganisms [2]; S. epidermidis
  Organism, effect (morphology, biofilm and growth disruption): S. epidermidis (R)
Microorganisms [2]; S. pneumoniae
  Organism, effect (morphology, biofilm and growth disruption): S. pneumoniae (C)
